# From paper PMC5218480 (PLoS ONE, 2017)
# Tested on: MV-4-11 cells
# Experiment: Gene expression microarray analysis (Affymetrix PrimeView) and GSEA
# Format: cell-based, human
# Parameters: RFU PODN (11730768_x_at) / Fold change /veh PODN (11730768_x_at) / RFU LINC00158 (11744669_a_at) / Fold change /veh LINC00158 (11744669_a_at) / RFU DUSP10 (11751237_a_at) / Fold change /veh DUSP10 (11751237_a_at) / RFU ID3 (11757404_x_at) / Fold change /veh ID3 (11757404_x_at) / RFU PLEKHG5 (11737974_s_at) / Fold change /veh PLEKHG5 (11737974_s_at) / RFU LRRC4B (11730491_at) / Fold change /veh LRRC4B (11730491_at) / RFU GIMAP4 (11747438_a_at) / Fold change /veh GIMAP4 (11747438_a_at) / RFU KRT8 (11758183_x_at) / Fold change /veh KRT8 (11758183_x_at) / RFU CNN1 (11734310_a_at) / Fold change /veh CNN1 (11734310_a_at) / RFU VPS37D (11726825_at) / Fold change /veh VPS37D (11726825_at) / RFU C10orf10 (11716522_x_at) / Fold change /veh C10orf10 (11716522_x_at) / RFU KIR2DL2 /// KIR2DL4 /// KIR2DL5A /// KIR2DL5B /// KIR2DS1 /// KIR2DS2 /// KIR2DS3 /// KIR2DS4 /// KIR3DL3 /// KIR3DL3 /// KIR3DS1 (11738374_at) / Fold change /veh KIR2DL2 /// KIR2DL4 /// KIR2DL5A /// KIR2DL5B /// KIR2DS1 /// KIR2DS2 /// KIR2DS3 /// KIR2DS4 /// KIR3DL3 /// KIR3DL3 /// KIR3DS1 (11738374_at) / RFU C1QL1 (11718748_at) / Fold change /veh C1QL1 (11718748_at) / RFU TMPRSS4 (11747572_a_at) / Fold change /veh TMPRSS4 (11747572_a_at) / RFU HAMP (11756126_x_at) / Fold change /veh HAMP (11756126_x_at) / RFU RNFT2 (11725882_a_at) / Fold change /veh RNFT2 (11725882_a_at) / RFU NR4A2 (11747474_a_at) / Fold change /veh NR4A2 (11747474_a_at) / RFU ABCC12 (11746883_a_at) / Fold change /veh ABCC12 (11746883_a_at) / RFU TMEM136 (11760407_x_at) / Fold change /veh TMEM136 (11760407_x_at) / RFU CLDN22 /// WWC2 (11732394_at) / Fold change /veh CLDN22 /// WWC2 (11732394_at) / RFU HLA-DPB1 (11760878_x_at) / Fold change /veh HLA-DPB1 (11760878_x_at) / RFU SPINT1 (11716480_a_at) / Fold change /veh SPINT1 (11716480_a_at) / RFU GAP43 (11754022_s_at) / Fold change /veh GAP43 (11754022_s_at) / RFU A4GNT (11735810_at) / Fold change /veh A4GNT (11735810_at) / RFU PRB3 (11715151_x_at) / Fold change /veh PRB3 (11715151_x_at) / RFU TUBB4B (11761932_at) / Fold change /veh TUBB4B (11761932_at) / RFU CAPN14 (11732068_a_at) / Fold change /veh CAPN14 (11732068_a_at) / RFU TMCC2 (11721928_a_at) / Fold change /veh TMCC2 (11721928_a_at) / RFU IRGQ (11745062_a_at) / Fold change /veh IRGQ (11745062_a_at) / RFU FAM174B (11720279_a_at) / Fold change /veh FAM174B (11720279_a_at) / RFU TMPRSS4 (11748680_a_at) / Fold change /veh TMPRSS4 (11748680_a_at) / RFU FAM212B (11763350_a_at) / Fold change /veh FAM212B (11763350_a_at) / RFU PLEKHG5 (11743358_a_at) / Fold change /veh PLEKHG5 (11743358_a_at) / RFU ZSCAN30 (11745921_a_at) / Fold change /veh ZSCAN30 (11745921_a_at) / RFU CMKLR1 (11741424_a_at) / Fold change /veh CMKLR1 (11741424_a_at) / RFU LOC101060620 /// MAPK8IP1 (11723275_at) / Fold change /veh LOC101060620 /// MAPK8IP1 (11723275_at) / RFU SPTSSB (11747773_x_at) / Fold change /veh SPTSSB (11747773_x_at) / RFU PRSS12 (11739890_at) / Fold change /veh PRSS12 (11739890_at) / RFU BIN1 (11741810_x_at) / Fold change /veh BIN1 (11741810_x_at) / RFU WNT11 (11732464_a_at) / Fold change /veh WNT11 (11732464_a_at) / RFU C10orf10 (11716521_a_at) / Fold change /veh C10orf10 (11716521_a_at) / RFU C5orf56 (11738089_at) / Fold change /veh C5orf56 (11738089_at) / RFU CYB561 (11721691_x_at) / Fold change /veh CYB561 (11721691_x_at) / RFU ANKRD19P (11752326_a_at) / Fold change /veh ANKRD19P (11752326_a_at) / RFU OR2T12 /// OR2T33 /// OR2T8 (11738714_s_at) / Fold change /veh OR2T12 /// OR2T33 /// OR2T8 (11738714_s_at) / RFU VCAN (11748164_a_at) / Fold change /veh VCAN (11748164_a_at) / RFU JSRP1 (11732532_at) / Fold change /veh JSRP1 (11732532_at) / RFU KRTAP10-11 (11738290_x_at) / Fold change /veh KRTAP10-11 (11738290_x_at) / RFU MYO3A (11730013_a_at) / Fold change /veh MYO3A (11730013_a_at) / RFU EBF3 (11725865_a_at) / Fold change /veh EBF3 (11725865_a_at) / RFU CAMK2N1 (11719241_x_at) / Fold change /veh CAMK2N1 (11719241_x_at) / RFU C5orf56 (11738088_a_at) / Fold change /veh C5orf56 (11738088_a_at) / RFU OLFML3 (11715873_a_at) / Fold change /veh OLFML3 (11715873_a_at) / RFU LOC100653217 /// NTM (11731650_a_at) / Fold change /veh LOC100653217 /// NTM (11731650_a_at) / RFU MAPK11 (11762145_a_at) / Fold change /veh MAPK11 (11762145_a_at) / RFU FIZ1 (11724087_x_at) / Fold change /veh FIZ1 (11724087_x_at) / RFU OASL (11726364_x_at) / Fold change /veh OASL (11726364_x_at) / RFU SOX15 (11748057_x_at) / Fold change /veh SOX15 (11748057_x_at) / RFU CD79A (11719716_a_at) / Fold change /veh CD79A (11719716_a_at) / RFU HIST1H1D (11736915_at) / Fold change /veh HIST1H1D (11736915_at) / RFU CASKIN2 (11723855_a_at) / Fold change /veh CASKIN2 (11723855_a_at) / RFU LOC730098 (11760151_x_at) / Fold change /veh LOC730098 (11760151_x_at) / RFU OR4N2 (11742367_at) / Fold change /veh OR4N2 (11742367_at) / RFU PRRT2 (11749266_a_at) / Fold change /veh PRRT2 (11749266_a_at) / RFU SNX32 (11753110_a_at) / Fold change /veh SNX32 (11753110_a_at) / RFU CDHR5 (11726645_a_at) / Fold change /veh CDHR5 (11726645_a_at) / RFU RCAN1 (11760418_a_at) / Fold change /veh RCAN1 (11760418_a_at) / RFU FAM167A (11723789_a_at) / Fold change /veh FAM167A (11723789_a_at) / RFU FAM26E (11764081_at) / Fold change /veh FAM26E (11764081_at) / RFU ISYNA1 (11749810_s_at) / Fold change /veh ISYNA1 (11749810_s_at) / RFU ACY1 (11761880_at) / Fold change /veh ACY1 (11761880_at) / RFU 11764098_at / Fold change /veh 11764098_at / RFU SAMD14 (11745864_x_at) / Fold change /veh SAMD14 (11745864_x_at) / RFU NPB (11741838_a_at) / Fold change /veh NPB (11741838_a_at) / RFU TMPRSS6 (11731388_a_at) / Fold change /veh TMPRSS6 (11731388_a_at) / RFU KRTAP10-2 (11738614_at) / Fold change /veh KRTAP10-2 (11738614_at) / RFU ARHGAP8 /// PRR5-ARHGAP8 (11727945_x_at) / Fold change /veh ARHGAP8 /// PRR5-ARHGAP8 (11727945_x_at) / RFU KRTAP5-7 /// NADSYN1 (11734609_at) / Fold change /veh KRTAP5-7 /// NADSYN1 (11734609_at) / RFU RASL12 (11751679_a_at) / Fold change /veh RASL12 (11751679_a_at) / RFU CDKN2B (11736163_a_at) / Fold change /veh CDKN2B (11736163_a_at) / RFU PRF1 (11729649_at) / Fold change /veh PRF1 (11729649_at) / RFU, ZNF638 /// ZNF638-IT1 / Fold change vs veh, ZNF638 /// ZNF638-IT1 / RFU, PANK3 / Fold change vs veh, PANK3 / RFU, SH3YL1 / Fold change vs veh, SH3YL1 / RFU, ZEB2 / Fold change vs veh, ZEB2 / RFU, NRIP1 / Fold change vs veh, NRIP1 / RFU, PTTG1IP / Fold change vs veh, PTTG1IP / RFU, CAPN2 / Fold change vs veh, CAPN2 / RFU, MED14 / Fold change vs veh, MED14 / RFU, SNORA58 / Fold change vs veh, SNORA58 / RFU, C1orf63 / Fold change vs veh, C1orf63 / RFU, LRRFIP1 / Fold change vs veh, LRRFIP1 / RFU, NDUFAF7 / Fold change vs veh, NDUFAF7 / RFU, SLC12A2 / Fold change vs veh, SLC12A2 / RFU, IBTK / Fold change vs veh, IBTK / RFU, ESF1 / Fold change vs veh, ESF1 / Fold change vs veh, TMEM50B / RFU, TAOK1 / Fold change vs veh, TAOK1 / RFU, ACBD3 / Fold change vs veh, ACBD3 / RFU, TMA16 / Fold change vs veh, TMA16 / RFU, RWDD3 / Fold change vs veh, RWDD3 / RFU, BCAT1 / Fold change vs veh, BCAT1 / RFU, EDEM3 / Fold change vs veh, EDEM3 / RFU, TMEM33 / Fold change vs veh, TMEM33 / RFU, WDR75 / Fold change vs veh, WDR75 / RFU, AHCTF1 / Fold change vs veh, AHCTF1 / RFU, TFRC / Fold change vs veh, TFRC / RFU, ZDHHC17 / Fold change vs veh, ZDHHC17 / RFU, NOM1 / Fold change vs veh, NOM1 / RFU, ARL8B / Fold change vs veh, ARL8B / RFU, ZBTB11 / Fold change vs veh, ZBTB11 / RFU, TAMM41 / Fold change vs veh, TAMM41 / RFU, KIAA1704 /// LOC100996395 / Fold change vs veh, KIAA1704 /// LOC100996395 / RFU, ING1 / Fold change vs veh, ING1 / RFU, TRMT61B / Fold change vs veh, TRMT61B / RFU, FUBP3 / Fold change vs veh, FUBP3 / RFU, TP53 / Fold change vs veh, TP53 / RFU, TNKS2 / Fold change vs veh, TNKS2 / RFU, ZFP14 / Fold change vs veh, ZFP14 / RFU, ACTR2 / Fold change vs veh, ACTR2 / RFU, PPP3R1 / Fold change vs veh, PPP3R1 / RFU, PIK3R1 / Fold change vs veh, PIK3R1 / RFU, HNRNPA1 / Fold change vs veh, HNRNPA1 / RFU, RNF170 / Fold change vs veh, RNF170 / RFU, ZNF28 / Fold change vs veh, ZNF28 / RFU, RNGTT / Fold change vs veh, RNGTT / RFU, OGT / Fold change vs veh, OGT / RFU, BRD1 / Fold change vs veh, BRD1 / RFU, MARS / Fold change vs veh, MARS / RFU, ZNF655 / Fold change vs veh, ZNF655 / RFU, FAHD1 / Fold change vs veh, FAHD1 / RFU, BDP1 / Fold change vs veh, BDP1 / RFU, LRRCC1 / Fold change vs veh, LRRCC1 / RFU, ARID1A / Fold change vs veh, ARID1A / RFU, ZNF146 / Fold change vs veh, ZNF146 / RFU, ZNF330 / Fold change vs veh, ZNF330 / RFU, GPN3 / Fold change vs veh, GPN3 / RFU, C9orf123 / Fold change vs veh, C9orf123 / RFU, N4BP2L2 / Fold change vs veh, N4BP2L2 / RFU, ARFIP1 / Fold change vs veh, ARFIP1 / RFU, FAM179B / Fold change vs veh, FAM179B / RFU, BCL10 / Fold change vs veh, BCL10 / RFU, UHRF1BP1L / Fold change vs veh, UHRF1BP1L / RFU, BET1 / Fold change vs veh, BET1 / RFU, CNOT2 / Fold change vs veh, CNOT2 / RFU, ZNF268 / Fold change vs veh, ZNF268 / Fold change vs veh, ZNF507 / RFU, DGCR2 / Fold change vs veh, DGCR2 / RFU, WDSUB1 / Fold change vs veh, WDSUB1 / Fold change vs veh, HSP90B1 /// MIR3652 / RFU, ADSS / Fold change vs veh, ADSS / RFU, GK / Fold change vs veh, GK / RFU, ZNF148 / Fold change vs veh, ZNF148 / RFU, TAF9 / Fold change vs veh, TAF9 / RFU, SLC1A5 / Fold change vs veh, SLC1A5 / RFU, SLMO2 / Fold change vs veh, SLMO2 / RFU, ABCC4 / Fold change vs veh, ABCC4 / RFU, LOC101060439 /// RAP1B / Fold change vs veh, LOC101060439 /// RAP1B / RFU, RFX7 / Fold change vs veh, RFX7 / RFU, GTPBP10 / Fold change vs veh, GTPBP10 / RFU, CNEP1R1 / Fold change vs veh, CNEP1R1 / RFU, BIVM-ERCC5 /// ERCC5 / Fold change vs veh, BIVM-ERCC5 /// ERCC5 / RFU, ILF3 / Fold change vs veh, ILF3 / RFU 11762660_at / Fold change /veh 11762660_at / RFU VCAN (11757783_s_at) / Fold change /veh VCAN (11757783_s_at) / RFU DDX43 (11728927_at) / Fold change /veh DDX43 (11728927_at) / RFU KRT8 (11758188_x_at) / Fold change /veh KRT8 (11758188_x_at) / RFU NKD1 (11759106_at) / Fold change /veh NKD1 (11759106_at) / RFU SRD5A1 (11742802_a_at) / Fold change /veh SRD5A1 (11742802_a_at) / RFU TPSAB1 /// TPSB2 (11721975_s_at) / Fold change /veh TPSAB1 /// TPSB2 (11721975_s_at) / RFU GSTM3 (11746129_a_at) / Fold change /veh GSTM3 (11746129_a_at) / RFU IL23R (11737362_x_at) / Fold change /veh IL23R (11737362_x_at) / RFU TMEM51 (11727254_a_at) / Fold change /veh TMEM51 (11727254_a_at) / RFU PIWIL2 (11732686_x_at) / Fold change /veh PIWIL2 (11732686_x_at) / RFU ORM1 (11744905_x_at) / Fold change /veh ORM1 (11744905_x_at) / RFU CCDC152 (11743942_at) / Fold change /veh CCDC152 (11743942_at) / RFU ECM1 (11717891_a_at) / Fold change /veh ECM1 (11717891_a_at) / RFU IL23R (11748794_a_at) / Fold change /veh IL23R (11748794_a_at) / RFU TNFAIP8L3 (11732012_x_at) / Fold change /veh TNFAIP8L3 (11732012_x_at) / RFU MBOAT4 (11741988_at) / Fold change /veh MBOAT4 (11741988_at) / RFU 11764193_at / Fold change /veh 11764193_at / RFU TMEM53 (11763286_at) / Fold change /veh TMEM53 (11763286_at) / RFU MAGEB2 (11727129_at) / Fold change /veh MAGEB2 (11727129_at) / RFU TMEM200A (11744735_a_at) / Fold change /veh TMEM200A (11744735_a_at) / RFU CCDC152 (11751479_a_at) / Fold change /veh CCDC152 (11751479_a_at) / RFU FAM211A (11726209_a_at) / Fold change /veh FAM211A (11726209_a_at) / RFU RGS16 (11746705_a_at) / Fold change /veh RGS16 (11746705_a_at) / RFU VCAN (11755009_s_at) / Fold change /veh VCAN (11755009_s_at) / RFU RHOB (11743442_s_at) / Fold change /veh RHOB (11743442_s_at) / RFU RGS16 (11720943_a_at) / Fold change /veh RGS16 (11720943_a_at) / RFU RGS16 (11720944_at) / Fold change /veh RGS16 (11720944_at) / RFU, VPS4B / Fold change vs veh, VPS4B / RFU, CREB1 / Fold change vs veh, CREB1 / RFU, DNAJC13 / Fold change vs veh, DNAJC13 / RFU, GNAQ / Fold change vs veh, GNAQ / RFU, CDK5R1 / Fold change vs veh, CDK5R1 / RFU, ZRANB3 / Fold change vs veh, ZRANB3 / RFU, CUL4A / Fold change vs veh, CUL4A / RFU, CCNY / Fold change vs veh, CCNY / RFU, UFL1 / Fold change vs veh, UFL1 / RFU, COG3 / Fold change vs veh, COG3 / RFU, DIAPH2 / Fold change vs veh, DIAPH2 / RFU, SKA2 / Fold change vs veh, SKA2 / RFU, AFF3 / Fold change vs veh, AFF3 / RFU, LMF1 / Fold change vs veh, LMF1 / RFU, IPO11 / Fold change vs veh, IPO11 / RFU, DFFB / Fold change vs veh, DFFB / RFU, FOXP1 / Fold change vs veh, FOXP1 / RFU, CARD8 / Fold change vs veh, CARD8 / RFU, STRN3 / Fold change vs veh, STRN3 / RFU, ADK / Fold change vs veh, ADK / RFU, RASSF2 / Fold change vs veh, RASSF2 / RFU, WIPF1 / Fold change vs veh, WIPF1 / RFU, LARP1B / Fold change vs veh, LARP1B / RFU, RASA1 / Fold change vs veh, RASA1 / RFU, RB1 / Fold change vs veh, RB1 / RFU, PPFIA1 / Fold change vs veh, PPFIA1 / RFU, MAT2A / Fold change vs veh, MAT2A / RFU, CCT5 / Fold change vs veh, CCT5 / RFU, WDR92 / Fold change vs veh, WDR92 / RFU, CUX1 / Fold change vs veh, CUX1 / RFU, TTC7A / Fold change vs veh, TTC7A / RFU, TMEM135 / Fold change vs veh, TMEM135 / RFU, DEPTOR / Fold change vs veh, DEPTOR / RFU, CPM / Fold change vs veh, CPM / RFU, DNAJB6 / Fold change vs veh, DNAJB6 / RFU, CACNA2D3 / Fold change vs veh, CACNA2D3 / RFU, DTX4 / Fold change vs veh, DTX4 / RFU, TFCP2 / Fold change vs veh, TFCP2 / RFU, GMCL1 /// GMCL1P1 / Fold change vs veh, GMCL1 /// GMCL1P1 / RFU, AEBP2 / Fold change vs veh, AEBP2 / RFU, SNHG1 /// SNORD22 /// SNORD25 /// SNORD26 /// SNORD27 /// SNORD28 /// SNORD29 /// SNORD31 / Fold change vs veh, SNHG1 /// SNORD22 /// SNORD25 /// SNORD26 /// SNORD27 /// SNORD28 /// SNORD29 /// SNORD31 / Fold change (Aza/veh), C12orf56 (ProbeSet 11735607_a_at) / Fold change (ACY-1035/veh), C12orf56 (ProbeSet 11735607_a_at) / Fold change (Aza/veh), FGFR1OP (ProbeSet 11751329_s_at) / Fold change (ACY-1035/veh), FGFR1OP (ProbeSet 11751329_s_at) / Fold change (Aza/veh), VPS36 (ProbeSet 11739960_a_at) / Fold change (ACY-1035/veh), VPS36 (ProbeSet 11739960_a_at) / RFU SYPL1 (11715823_x_at) / Fold change /veh SYPL1 (11715823_x_at) / RFU IGFBP7 (11715501_s_at) / Fold change /veh IGFBP7 (11715501_s_at) / RFU REEP3 (11722064_at) / Fold change /veh REEP3 (11722064_at) / RFU IGLL1 (11728026_x_at) / Fold change /veh IGLL1 (11728026_x_at): dose or concentration left out as unconfirmed
# Conditions: MV-4-11 cells, 48 hours
smiles,measurement,value
Nc1ccc(-c2cccs2)cc1NC(=O)c1ccc2c(c1)cc(C1CC1)n2CCN1CCOCC1 [ACY-1035],Fold change /veh GSTM3 (11746129_a_at),0.96
